Measurements: US20260078103A1, “ISOQUINOLONES AS PI3K INHIBITORS” (OnKure, Inc., priority 2022, published 2026)
Read-outs that look alike come from different tables or passages of the source.

Legend:
Type in all cases: cell-based
[1] = test system: SKBR3 cells express WT PI3Ka; experiment: In vitro cell proliferation, SKBR3 cells (CellTiter-Glo); conditions: inhibition of proliferation
Method in brief: (§1)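 Proliferation was read by CellTiter-Glo luminescence after 72 h of exposure to 10-point compound dilutions at 37 °C and 5% CO2. T47D (RPMI, 10% FBS, insulin 0.2 units/mL) and SKBR3 (McCoys 5a, 10% FBS) cells were seeded at 1,500 cells/well. EC50 was fitted from inhibition relative to DMSO and 10 uM Alpelisib.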

[2] = test system: phosphorylation of AKT (pAKT) in T47D cells expressing mutant PI3Ka (H1047R); experiment: In vitro cell pAKT (Ser473) HTRF, T47D cells; conditions: cellular pAKT, T47D cells, mutant PI3Ka (H1047R), 6 hours, read-out: Avg T-47D IC50
Method in brief: (§2)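 T47D cells (RPMI, 10% FBS, 0.2 units/mL insulin) or SKBR3 cells (McCoy's 5a, 10% FBS) were seeded onto 10-point compound dilutions and incubated 6 h at 37 °C. After lysis, pAKT was detected overnight by HTRF (Eu cryptate/d2). IC50 was fitted from % inhibition relative to 0.1% DMSO and 10 uM alpelisib controls.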

[3] = test system: T47D cells expressing mutant PI3Ka (H1047R); experiment: In vitro cell proliferation, T47D cells (CellTiter-Glo); conditions: inhibition of proliferation, read-out: Avg T-47D EC50
Method in brief: as §1

[4] = test system: phosphorylation of AKT (pAKT) in SKBR3 cells express WT PI3Ka; experiment: In vitro cell pAKT (Ser473) HTRF, SKBR3 cells; conditions: cellular pAKT
Method in brief: as §2

SMILES	EC50 ([1]; Homo sapiens, SK-BR-3, 72 h) [nM]	IC50 ([2]; Homo sapiens, T47D, 6 h) [nM]	EC50 ([3]; Homo sapiens, T47D, 72 h) [nM]	IC50 ([4]; Homo sapiens, SK-BR-3, 6 h) [nM]	EC50 ([1]; 72 hours) [nM]	IC50 [2] [nM]	EC50 ([3]; 72 hours) [nM]	IC50 ([4]; 6 hours) [nM]
Cc1nc(N2CCN(c3cc4c([C@@H](C)Nc5ccccc5C(=O)O)cc(F)cc4c(=O)n3C)CC2)cs1 [Example 491]	2000 to 15000	1 to 500	1 to 500	2000 to 15000	–	–	–	–
Cc1cnc(N2CCN(c3cc4c([C@@H](C)Nc5ccccc5C(=O)O)cc(F)cc4c(=O)n3C)CC2)c(C)n1 [Example 492]	2000 to 15000	1 to 500	1 to 500	2000 to 15000	–	–	–	–
Cc1ncc(N2CCN(c3cc4c([C@@H](C)Nc5ccccc5C(=O)O)cc(F)cc4c(=O)n3C)CC2)c(C)n1 [Example 495]	2000 to 15000	1 to 500	1 to 500	500 to 2000	–	–	–	–
C[C@@H](Nc1ccccc1C(=O)O)c1cc(F)cc2c(=O)n(C)c(-c3cc(F)c4nn(C(F)F)cc4c3)cc12 [Example 496]	> 15000	1 to 500	500 to 2000	> 15000	–	–	–	–
C[C@@H](Nc1ccccc1C(=O)O)c1cc(F)cc2c(=O)n(C)c(-c3ccc(OC4CC4)nc3)cc12 [Example 497]	> 15000	1 to 500	1 to 500	> 15000	–	–	–	–
CC(=O)N1CCN(c2cc3c([C@@H](C)Nc4ccccc4C(=O)O)cc(C)cc3c(=O)n2C)CC1 [Example 498]	> 15000	500 to 2000	500 to 2000	> 15000	–	–	–	–
Cc1cc([C@@H](C)Nc2ccccc2C(=O)O)c2cc(N3CCN(C=O)CC3)n(C)c(=O)c2c1 [Example 499]	> 15000	500 to 2000	500 to 2000	> 15000	–	–	–	–
Cc1ncc(-c2cc3c([C@@H](C)Nc4ccccc4C(=O)O)cc(F)cc3c(=O)n2C)s1 [Example 501]	> 15000	1 to 500	1 to 500	> 15000	–	–	–	–
Cc1ccc(N2CCN(c3cc4c([C@@H](C)Nc5ccccc5C(=O)O)cc(F)cc4c(=O)n3C)CC2(C)C)cn1 [Example 502]	2000 to 15000	1 to 500	1 to 500	500 to 2000	–	–	–	–
Cc1cc([C@@H](C)Nc2ncccc2C(=O)O)c2cc(N3CCN(CC(F)(F)F)CC3)n(C)c(=O)c2c1 [Example 503]	> 15000	500 to 2000	500 to 2000	> 15000	–	–	–	–
Cc1cnc(-c2cc3c([C@@H](C)Nc4ccccc4C(=O)O)cc(F)cc3c(=O)n2C)s1 [Example 504]	> 15000	1 to 500	1 to 500	> 15000	–	–	–	–
C[C@@H](Nc1ccccc1C(=O)O)c1cc(F)cc2c(=O)n(C)c(-c3cnc(-c4ncc(Cl)cc4F)c(F)c3)cc12 [Example 505]	–	–	–	–	> 15000	1 to 500	1 to 500	> 15000
C[C@@H](Nc1ccccc1C(=O)O)c1cc(F)cc2c(=O)n(C)c(N3CC4CCC(C3)N4CC(F)(F)F)cc12 [Example 511]	2000 to 15000	1 to 500	1 to 500	> 15000	–	–	–	–

Second part, the compound after the results:

EC50 ([1]; Homo sapiens, SK-BR-3, 72 h) [nM]	IC50 ([2]; Homo sapiens, T47D, 6 h) [nM]	EC50 ([3]; Homo sapiens, T47D, 72 h) [nM]	IC50 ([4]; Homo sapiens, SK-BR-3, 6 h) [nM]	EC50 ([1]; 72 hours) [nM]	IC50 [2] [nM]	EC50 ([3]; 72 hours) [nM]	IC50 ([4]; 6 hours) [nM]	SMILES
–	–	–	–	> 15000	1 to 500	500 to 2000	> 15000	C[C@@H](Nc1ccccc1C(=O)O)c1cc(F)cc2c(=O)n(C)c(-c3ccc(OC4COC4)nc3)cc12 [Example 507]
> 15000	500 to 2000	500 to 2000	> 15000	–	–	–	–	C[C@@H](Nc1ccccc1C(=O)O)c1cc(F)cc2c(=O)n(C)c(-c3cnc(C(F)(F)F)s3)cc12 [Example 508]
2000 to 15000	1 to 500	1 to 500	2000 to 15000	–	–	–	–	Cc1cc([C@@H](C)Nc2ccccc2C(=O)O)c2cc(N3CCN(c4cnc(C(F)(F)F)nc4)CC3)n(C)c(=O)c2c1 [Example 509]
> 15000	1 to 500	1 to 500	> 15000	–	–	–	–	C[C@@H](Nc1ccccc1C(=O)O)c1cc(F)cc2c(=O)n(C)c(N3CCN(CC(F)(F)F)C(C)(C)C3)cc12 [Example 510]
2000 to 15000	1 to 500	1 to 500	2000 to 15000	–	–	–	–	Cc1cc(N2CCN(c3cc4c([C@@H](C)Nc5ccccc5C(=O)O)cc(F)cc4c(=O)n3C)CC2)on1 [Example 512]
> 15000	1 to 500	1 to 500	> 15000	–	–	–	–	COc1ncc(-c2cc3c([C@@H](C)Nc4ccccc4C(=O)O)cc(F)cc3c(=O)n2C)s1 [Example 513]
2000 to 15000	1 to 500	1 to 500	> 15000	–	–	–	–	Cc1cnc(-c2ncc(-c3cc4c([C@@H](C)Nc5ccccc5C(=O)O)cc(F)cc4c(=O)n3C)cc2F)cn1 [Example 515]
> 15000	1 to 500	1 to 500	> 15000	–	–	–	–	Cc1cc([C@@H](C)Nc2ccccc2C(=O)O)c2cc(-c3cnc(C(C)C)cn3)n(C)c(=O)c2c1 [Example 516]
> 15000	1 to 500	1 to 500	> 15000	–	–	–	–	Cc1cc([C@@H](C)Nc2ccccc2C(=O)O)c2cc(-c3cnc(C4CC4)cn3)n(C)c(=O)c2c1 [Example 517]
> 15000	1 to 500	1 to 500	> 15000	–	–	–	–	C[C@@H](Nc1ccccc1C(=O)O)c1cc(F)cc2c(=O)n(C)c(-c3cnc(-c4nccs4)c(F)c3)cc12 [Example 518]
–	–	–	–	> 15000	1 to 500	1 to 500	> 15000	Cc1ncc(-c2ncc(-c3cc4c([C@@H](C)Nc5ccccc5C(=O)O)cc(F)cc4c(=O)n3C)cc2F)s1 [Example 519]
–	–	–	–	> 15000	1 to 500	1 to 500	> 15000	Cc1cc(-c2ncc(-c3cc4c([C@@H](C)Nc5ccccc5C(=O)O)cc(F)cc4c(=O)n3C)cc2F)on1 [Example 520]
–	–	–	–	2000 to 15000	1 to 500	1 to 500	> 15000	C[C@@H](Nc1ccccc1C(=O)O)c1cc(F)cc2c(=O)n(C)c(C34CC(C(F)(F)F)(C3)C4)cc12 [Example 521]
> 15000	1 to 500	1 to 500	> 15000	–	–	–	–	CCc1ncc(-c2cc3c([C@@H](C)Nc4ccccc4C(=O)O)cc(F)cc3c(=O)n2C)s1 [Example 524]
> 15000	1 to 500	1 to 500	> 15000	–	–	–	–	Cc1cc([C@@H](C)Nc2ccccc2C(=O)O)c2c(F)c(C3CC3)n(C)c(=O)c2c1 [Example 529]
> 15000	1 to 500	1 to 500	> 15000	–	–	–	–	CCOc1ncc(-c2c(F)c3c([C@@H](C)Nc4ccccc4C(=O)O)cc(C)cc3c(=O)n2C)s1 [Example 536]
> 15000	1 to 500	1 to 500	> 15000	–	–	–	–	C[C@@H](Nc1ccccc1C(=O)O)c1cc(F)cc2c(=O)n(C)c(-c3cnc(C(F)F)s3)cc12 [Example 539]
> 15000	1 to 500	1 to 500	> 15000	–	–	–	–	C[C@@H](Nc1ccccc1C(=O)O)c1cc(F)cc2c(=O)n(C)c(-c3ccc(COC(F)(F)F)nc3)cc12 [Example 540]
–	–	–	–	2000 to 15000	1 to 500	1 to 500	2000 to 15000	C#Cc1ccc(N[C@H](C)c2cc(F)cc3c(=O)n(C)c(-c4ccc(OCC(F)(F)F)nc4)cc23)c(C(=O)O)n1 [Example 542]
